From PubChem BioAssay AID1259407 (Chemical Carcinogenesis Research Information System (CCRIS), 2018)
Active and inactive are the calls of the source. How the calls were made is not given here.

System: CCRIS mutagenicity, Ames/micronucleus/aberration tests
Test: CCRIS mutagenicity studies
[1] = Test System: AMES SALMONELLA TYPHIMURIUM, Strain/Indicator: TA98, Metabolic Activation: NONE, Method: PREINCUBATION
[2] = Test System: AMES SALMONELLA TYPHIMURIUM, Strain/Indicator: TA100, Metabolic Activation: NONE, Method: PREINCUBATION
[3] = Test System: MOUSE LYMPHOMA, Strain/Indicator: L5178Y (TK+/TK-), Metabolic Activation: RAT, LIVER, S-9, AROCLOR 1254, Method: SUSPENSION/PLATE

O=C1[O][Bi][O]c2ccccc21
mutagenic call (Test System: AMES SALMONELLA TYPHIMURIUM, Strain/Indicator: TA98, Metabolic Activation: HAMSTER, LIVER, S-9, AROCLOR 1254 (10%), Method: PREINCUBATION): inactive; negative
mutagenic call [1]: inactive; negative
mutagenic call (Test System: AMES SALMONELLA TYPHIMURIUM, Strain/Indicator: TA98, Metabolic Activation: RAT, LIVER, S-9, AROCLOR 1254 (10%), Method: PREINCUBATION): inactive; negative
mutagenic call (Test System: AMES SALMONELLA TYPHIMURIUM, Strain/Indicator: TA100, Metabolic Activation: HAMSTER, LIVER, S-9, AROCLOR 1254 (10%), Method: PREINCUBATION): inactive; negative
mutagenic call [2]: inactive; negative
mutagenic call (Test System: AMES SALMONELLA TYPHIMURIUM, Strain/Indicator: TA100, Metabolic Activation: RAT, LIVER, S-9, AROCLOR 1254 (10%), Method: PREINCUBATION): inactive; negative
mutagenic call (Test System: AMES SALMONELLA TYPHIMURIUM, Strain/Indicator: TA1535, Metabolic Activation: HAMSTER, LIVER, S-9, AROCLOR 1254 (10%), Method: PREINCUBATION): inactive; negative
mutagenic call (Test System: AMES SALMONELLA TYPHIMURIUM, Strain/Indicator: TA1535, Metabolic Activation: NONE, Method: PREINCUBATION): inactive; negative
mutagenic call (Test System: AMES SALMONELLA TYPHIMURIUM, Strain/Indicator: TA1535, Metabolic Activation: RAT, LIVER, S-9, AROCLOR 1254 (10%), Method: PREINCUBATION): inactive; negative
mutagenic call (Test System: AMES SALMONELLA TYPHIMURIUM, Strain/Indicator: TA1537, Metabolic Activation: HAMSTER, LIVER, S-9, AROCLOR 1254 (10%), Method: PREINCUBATION): inactive; negative
mutagenic call (Test System: AMES SALMONELLA TYPHIMURIUM, Strain/Indicator: TA1537, Metabolic Activation: NONE, Method: PREINCUBATION): inactive; negative
mutagenic call (Test System: AMES SALMONELLA TYPHIMURIUM, Strain/Indicator: TA1537, Metabolic Activation: RAT, LIVER, S-9, AROCLOR 1254 (10%), Method: PREINCUBATION): inactive; negative

c1ccc2c(c1)CCCC2
mutagenic call (Test System: AMES SALMONELLA TYPHIMURIUM, Strain/Indicator: TA98, Metabolic Activation: HAMSTER, LIVER, S-9, AROCLOR 1254, Method: STANDARD PLATE): inactive; negative
mutagenic call (Test System: AMES SALMONELLA TYPHIMURIUM, Strain/Indicator: TA98, Metabolic Activation: NONE, Method: STANDARD PLATE): inactive; negative
mutagenic call (Test System: AMES SALMONELLA TYPHIMURIUM, Strain/Indicator: TA98, Metabolic Activation: RAT, LIVER, S-9, AROCLOR 1254, Method: STANDARD PLATE): inactive; negative
mutagenic call (Test System: AMES SALMONELLA TYPHIMURIUM, Strain/Indicator: TA100, Metabolic Activation: HAMSTER, LIVER, S-9, AROCLOR 1254, Method: STANDARD PLATE): inactive; negative
mutagenic call (Test System: AMES SALMONELLA TYPHIMURIUM, Strain/Indicator: TA100, Metabolic Activation: NONE, Method: STANDARD PLATE): inactive; negative
mutagenic call (Test System: AMES SALMONELLA TYPHIMURIUM, Strain/Indicator: TA100, Metabolic Activation: RAT, LIVER, S-9, AROCLOR 1254, Method: STANDARD PLATE): inactive; negative
mutagenic call (Test System: AMES SALMONELLA TYPHIMURIUM, Strain/Indicator: TA1535, Metabolic Activation: HAMSTER, LIVER, S-9, AROCLOR 1254, Method: STANDARD PLATE): inactive; negative
mutagenic call (Test System: AMES SALMONELLA TYPHIMURIUM, Strain/Indicator: TA1535, Metabolic Activation: NONE, Method: STANDARD PLATE): inactive; negative
mutagenic call (Test System: AMES SALMONELLA TYPHIMURIUM, Strain/Indicator: TA1535, Metabolic Activation: RAT, LIVER, S-9, AROCLOR 1254, Method: STANDARD PLATE): inactive; negative
mutagenic call (Test System: AMES SALMONELLA TYPHIMURIUM, Strain/Indicator: TA1537, Metabolic Activation: HAMSTER, LIVER, S-9, AROCLOR 1254, Method: STANDARD PLATE): inactive; negative
mutagenic call (Test System: AMES SALMONELLA TYPHIMURIUM, Strain/Indicator: TA1537, Metabolic Activation: NONE, Method: STANDARD PLATE): inactive; negative
mutagenic call (Test System: AMES SALMONELLA TYPHIMURIUM, Strain/Indicator: TA1537, Metabolic Activation: RAT, LIVER, S-9, AROCLOR 1254, Method: STANDARD PLATE): inactive; negative
mutagenic call (Test System: AMES SALMONELLA TYPHIMURIUM, Strain/Indicator: TA1538, Metabolic Activation: HAMSTER, LIVER, S-9, AROCLOR 1254, Method: STANDARD PLATE): inactive; negative
mutagenic call (Test System: AMES SALMONELLA TYPHIMURIUM, Strain/Indicator: TA1538, Metabolic Activation: NONE, Method: STANDARD PLATE): inactive; negative
mutagenic call (Test System: AMES SALMONELLA TYPHIMURIUM, Strain/Indicator: TA1538, Metabolic Activation: RAT, LIVER, S-9, AROCLOR 1254, Method: STANDARD PLATE): inactive; negative
mutagenic call [3]: active; positive. reevaluation of results: equivocal

Clc1cc2c(cc1Cl)Oc1cc(Cl)c(Cl)cc1O2
mutagenic call (End Point: IN VITRO CHROMOSOMAL ABERRATIONS, Test System: CHINESE HAMSTER OVARY CELLS, Metabolic Activation: NONE): inactive; negative
mutagenic call (End Point: IN VITRO CHROMOSOMAL ABERRATIONS, Test System: CHINESE HAMSTER OVARY CELLS, Metabolic Activation: RAT, LIVER, S-9, AROCLOR 1254): inactive; negative
mutagenic call (Test System: AMES SALMONELLA TYPHIMURIUM, Strain/Indicator: TA97, Metabolic Activation: NONE, Method: PREINCUBATION): inactive; negative
mutagenic call (Test System: AMES SALMONELLA TYPHIMURIUM, Strain/Indicator: TA97, Metabolic Activation: RAT, LIVER, S-9, AROCLOR 1254, Method: PREINCUBATION): inactive; negative
mutagenic call [1]: inactive; negative
mutagenic call (Test System: AMES SALMONELLA TYPHIMURIUM, Strain/Indicator: TA98, Metabolic Activation: RAT, LIVER, S-9, AROCLOR 1254, Method: PREINCUBATION): inactive; negative
mutagenic call [2]: inactive; negative
mutagenic call (Test System: AMES SALMONELLA TYPHIMURIUM, Strain/Indicator: TA100, Metabolic Activation: RAT, LIVER, S-9, AROCLOR 1254, Method: PREINCUBATION): inactive; negative
mutagenic call (Test System: Ames Salmonella typhimurium, Strain/Indicator: TA98, Metabolic Activation: Hamster, Liver, S-9, Aroclor 1254, Method: Preincubation): inactive; negative
mutagenic call (Test System: Ames Salmonella typhimurium, Strain/Indicator: TA98, Metabolic Activation: None, Method: Preincubation): inactive; negative
mutagenic call (Test System: Ames Salmonella typhimurium, Strain/Indicator: TA98, Metabolic Activation: Rat, Liver, S-9, Aroclor 1254, Method: Preincubation): inactive; negative
mutagenic call (Test System: Ames Salmonella typhimurium, Strain/Indicator: TA100, Metabolic Activation: Hamster, Liver, S-9, Aroclor 1254, Method: Preincubation): inactive; negative
mutagenic call (Test System: Ames Salmonella typhimurium, Strain/Indicator: TA100, Metabolic Activation: None, Method: Preincubation): inactive; negative
mutagenic call (Test System: Ames Salmonella typhimurium, Strain/Indicator: TA100, Metabolic Activation: Rat, Liver, S-9, Aroclor 1254, Method: Preincubation): inactive; negative
mutagenic call (Test System: Ames Salmonella typhimurium, Strain/Indicator: TA1535, Metabolic Activation: Hamster, Liver, S-9, Aroclor 1254, Method: Preincubation): inactive; negative
mutagenic call (Test System: Ames Salmonella typhimurium, Strain/Indicator: TA1535, Metabolic Activation: None, Method: Preincubation): inactive; negative
mutagenic call (Test System: Ames Salmonella typhimurium, Strain/Indicator: TA1535, Metabolic Activation: Rat, Liver, S-9, Aroclor 1254, Method: Preincubation): inactive; negative
mutagenic call (Test System: Ames Salmonella typhimurium, Strain/Indicator: TA1537, Metabolic Activation: Hamster, Liver, S-9, Aroclor 1254, Method: Preincubation): inactive; negative
mutagenic call (Test System: Ames Salmonella typhimurium, Strain/Indicator: TA1537, Metabolic Activation: None, Method: Preincubation): inactive; negative
mutagenic call (Test System: Ames Salmonella typhimurium, Strain/Indicator: TA1537, Metabolic Activation: Rat, Liver, S-9, Aroclor 1254, Method: Preincubation): inactive; negative
mutagenic call (Test System: MOUSE LYMPHOMA, Strain/Indicator: L5178Y (TK+/TK-), Metabolic Activation: NONE, Method: SUSPENSION/PLATE): inactive; negative
mutagenic call [3]: inactive; negative
